Laboratory results published in PubChem BioAssay AID651573 (The Scripps Research Institute Molecular Screening Center, 2012).
Calls of active or inactive are those of the source.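 The calls were made as follows: active = percent growth at or below 50%, meaning growth inhibited by at least half; inactive = percent growth above 50%.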

Assays:
Test in all cases: growth inhibition across NCI60 tumor lines, profiling panel, STAT3 inhibitor project, cell-based, NCI60 one-dose, 10 µM (AID 651573)
[1] = test system: Colon Cancer KM12; conditions: SRB absorbance, 48 h, at 10 µM, active compounds read low
[2] = test system: Leukemia SR; conditions: NCI60 cancer cell panel growth, SRB absorbance, 48 h, at 10 µM, active compounds read low
[3] = test system: Prostate Cancer PC-3; conditions: SRB absorbance, 48 h, at 10 µM, active compounds read low
[4] = test system: Renal Cancer TK-10; conditions: SRB absorbance, 48 h, at 10 µM, active compounds read low
[5] = test system: Non-Small Cell Lung Cancer HOP-62; conditions: SRB absorbance, 48 h, at 10 µM, active compounds read low, 0 = no net growth, negative = cell kill
[6] = test system: Colon Cancer HCC-2998; conditions: SRB absorbance, 48 h, at 10 µM, active compounds read low
[7] = test system: Non-Small Cell Lung Cancer HOP-92; conditions: SRB absorbance, 48 h, at 10 µM, active compounds read low, 0 = no net growth, negative = cell kill
[8] = test system: CNS Cancer SNB-75; conditions: SRB absorbance, 48 h, at 10 µM, active compounds read low
[9] = test system: Melanoma UACC-257; conditions: NCI60 cancer cell panel growth, SRB absorbance, 48 h, at 10 µM, active compounds read low
[10] = test system: Non-Small Cell Lung Cancer NCI-H226; conditions: SRB absorbance, 48 h, at 10 µM, active compounds read low
[11] = test system: Non-Small Cell Lung Cancer NCI-H23; conditions: SRB absorbance, 48 h, at 10 µM, active compounds read low
[12] = test system: Melanoma UACC-62; conditions: NCI60 cancer cell panel growth, SRB absorbance, 48 h, at 10 µM, active compounds read low, 0 = no net growth, negative = cell kill
[13] = test system: Breast Cancer MDA-MB-231/ATCC; conditions: SRB absorbance, 48 h, at 10 µM, active compounds read low
[14] = test system: Melanoma MALME-3M; conditions: NCI60 cancer cell panel growth, SRB absorbance, 48 h, at 10 µM, active compounds read low
[15] = test system: Breast Cancer BT-549; conditions: SRB absorbance, 48 h, at 10 µM, active compounds read low, 0 = no net growth, negative = cell kill
[16] = test system: Melanoma LOX IMVI; conditions: NCI60 cancer cell panel growth, SRB absorbance, 48 h, at 10 µM, active compounds read low
[17] = test system: Ovarian Cancer OVCAR-4; conditions: SRB absorbance, 48 h, at 10 µM, active compounds read low
[18] = test system: Melanoma M14; conditions: NCI60 cancer cell panel growth, SRB absorbance, 48 h, at 10 µM, active compounds read low
[19] = test system: Melanoma SK-MEL-28; conditions: NCI60 cancer cell panel growth, SRB absorbance, 48 h, at 10 µM, active compounds read low
[20] = test system: Ovarian Cancer NCI/ADR-RES; conditions: SRB absorbance, 48 h, at 10 µM, active compounds read low
[21] = test system: Renal Cancer CAKI-1; conditions: SRB absorbance, 48 h, at 10 µM, active compounds read low
[22] = test system: CNS Cancer U251; conditions: SRB absorbance, 48 h, at 10 µM, active compounds read low
[23] = test system: Prostate Cancer DU-145; conditions: SRB absorbance, 48 h, at 10 µM, active compounds read low
[24] = test system: Breast Cancer HS 578T; conditions: SRB absorbance, 48 h, at 10 µM, active compounds read low
[25] = test system: CNS Cancer SNB-19; conditions: SRB absorbance, 48 h, at 10 µM, active compounds read low
[26] = test system: Non-Small Cell Lung Cancer NCI-H322M; conditions: SRB absorbance, 48 h, at 10 µM, active compounds read low
[27] = test system: CNS Cancer SF-295; conditions: SRB absorbance, 48 h, at 10 µM, active compounds read low
[28] = test system: Non-Small Cell Lung Cancer A549/ATCC; conditions: SRB absorbance, 48 h, at 10 µM, active compounds read low
[29] = test system: Renal Cancer A498; conditions: SRB absorbance, 48 h, at 10 µM, active compounds read low
[30] = test system: Colon Cancer COLO 205; conditions: SRB absorbance, 48 h, at 10 µM, active compounds read low, 0 = no net growth, negative = cell kill
[31] = test system: Colon Cancer HCT-15; conditions: SRB absorbance, 48 h, at 10 µM, active compounds read low
[32] = test system: Melanoma SK-MEL-5; conditions: NCI60 cancer cell panel growth, SRB absorbance, 48 h, at 10 µM, active compounds read low
[33] = test system: Leukemia RPMI-8226; conditions: NCI60 cancer cell panel growth, SRB absorbance, 48 h, at 10 µM, active compounds read low
[34] = test system: Leukemia K-562; conditions: NCI60 cancer cell panel growth, SRB absorbance, 48 h, at 10 µM, active compounds read low
[35] = test system: Colon Cancer SW-620; conditions: SRB absorbance, 48 h, at 10 µM, active compounds read low, 0 = no net growth, negative = cell kill
[36] = test system: Leukemia CCRF-CEM; conditions: NCI60 cancer cell panel growth, SRB absorbance, 48 h, at 10 µM, active compounds read low
[37] = test system: Ovarian Cancer SK-OV-3; conditions: SRB absorbance, 48 h, at 10 µM, active compounds read low
[38] = test system: Melanoma MDA-MB-435; conditions: NCI60 cancer cell panel growth, SRB absorbance, 48 h, at 10 µM, active compounds read low
[39] = test system: Ovarian Cancer OVCAR-8; conditions: SRB absorbance, 48 h, at 10 µM, active compounds read low
[40] = test system: Non-Small Cell Lung Cancer EKVX; conditions: SRB absorbance, 48 h, at 10 µM, active compounds read low
[41] = test system: Renal Cancer SN12C; conditions: SRB absorbance, 48 h, at 10 µM, active compounds read low
[42] = test system: Breast Cancer MDA-MB-468; conditions: SRB absorbance, 48 h, at 10 µM, active compounds read low
[43] = test system: Renal Cancer RXF 393; conditions: SRB absorbance, 48 h, at 10 µM, active compounds read low
[44] = test system: Non-Small Cell Lung Cancer NCI-H460; conditions: SRB absorbance, 48 h, at 10 µM, active compounds read low
[45] = test system: Non-Small Cell Lung Cancer NCI-H522; conditions: SRB absorbance, 48 h, at 10 µM, active compounds read low
[46] = test system: Colon Cancer HCT-116; conditions: SRB absorbance, 48 h, at 10 µM, active compounds read low
[47] = test system: Leukemia MOLT-4; conditions: NCI60 cancer cell panel growth, SRB absorbance, 48 h, at 10 µM, active compounds read low
[48] = test system: CNS Cancer SF-268; conditions: SRB absorbance, 48 h, at 10 µM, active compounds read low
[49] = test system: Ovarian Cancer OVCAR-3; conditions: SRB absorbance, 48 h, at 10 µM, active compounds read low
[50] = test system: Breast Cancer MCF7; conditions: SRB absorbance, 48 h, at 10 µM, active compounds read low
[51] = test system: Renal Cancer 786-0; conditions: SRB absorbance, 48 h, at 10 µM, active compounds read low
[52] = test system: Melanoma SK-MEL-2; conditions: NCI60 cancer cell panel growth, SRB absorbance, 48 h, at 10 µM, active compounds read low

COc1ccc(CC2CCN(c3ncnc4sccc34)CC2)cc1
percent growth [1]: 91.7% (inactive) | percent growth [2]: 72.5% (inactive) | percent growth [3]: 81.5% (inactive) | percent growth [4]: 80.4% (inactive) | percent growth [5]: 93.6% (inactive) | percent growth [6]: 88.5% (inactive) | percent growth [7]: 75.4% (inactive) | percent growth [8]: 100% (inactive) | percent growth [9]: 67.2% (inactive) | percent growth [10]: 82% (inactive) | percent growth [11]: 46.8% | percent growth [12]: 54.8% (inactive) | percent growth [13]: 79.8% (inactive) | percent growth [14]: 127% (inactive) | percent growth [15]: 56% (inactive) | percent growth [16]: 34.4% | percent growth [17]: 50.7% (inactive) | percent growth [18]: 87.5% (inactive) | percent growth [19]: 108% (inactive) | percent growth [20]: 43.4% | percent growth [21]: 66.3% (inactive) | percent growth [22]: 73.2% (inactive) | percent growth [23]: 99.4% (inactive) | percent growth [24]: 90.1% (inactive) | percent growth [25]: 69.3% (inactive) | percent growth [26]: 66.6% (inactive) | percent growth [27]: 59% (inactive) | percent growth [28]: 64.2% (inactive) | percent growth [29]: 96.1% (inactive) | percent growth [30]: 95% (inactive) | percent growth [31]: 73.7% (inactive) | percent growth [32]: 31.8% | percent growth [33]: 25.4% | percent growth [34]: 41.1% | percent growth [35]: 86.9% (inactive) | percent growth [36]: 51% (inactive) | percent growth [37]: 87.5% (inactive) | percent growth [38]: 66.9% (inactive) | percent growth [39]: 65.4% (inactive) | percent growth [40]: 39.9% | percent growth [41]: 72.9% (inactive) | percent growth [42]: 21.3% | percent growth [43]: 108% (inactive) | percent growth [44]: 62.4% (inactive) | percent growth [45]: 48.5% | percent growth [46]: 34.9% | percent growth [47]: 66% (inactive) | percent growth [48]: 93.2% (inactive) | percent growth [49]: 94.1% (inactive) | percent growth [50]: 55.5% (inactive) | percent growth [51]: 65.6% (inactive) | percent growth [52]: 71.3% (inactive)

COc1ccc(C(=O)C2CCN(c3ncnc4sccc34)CC2)cc1
percent growth [1]: 87.9% (inactive) | percent growth [2]: 47.9% | percent growth [3]: 76.9% (inactive) | percent growth [4]: 73.3% (inactive) | percent growth [5]: 91.9% (inactive) | percent growth [6]: 82.3% (inactive) | percent growth [7]: 61.7% (inactive) | percent growth [8]: 104% (inactive) | percent growth [9]: 63.7% (inactive) | percent growth [10]: 88.8% (inactive) | percent growth [11]: 53.4% (inactive) | percent growth [12]: 52.7% (inactive) | percent growth [13]: 77.8% (inactive) | percent growth [15]: 53.4% (inactive) | percent growth [16]: 40.1% | percent growth [18]: 78.5% (inactive) | percent growth [19]: 105% (inactive) | percent growth [20]: 43.5% | percent growth [21]: 66.4% (inactive) | percent growth [22]: 77.5% (inactive) | percent growth [23]: 98.8% (inactive) | percent growth [24]: 93.6% (inactive) | percent growth [25]: 64.8% (inactive) | percent growth [27]: 57.1% (inactive) | percent growth [28]: 74.5% (inactive) | percent growth [29]: 91.7% (inactive) | percent growth [30]: 88.2% (inactive) | percent growth [31]: 72.4% (inactive) | percent growth [32]: 26.5% | percent growth [33]: 27.7% | percent growth [34]: 41.4% | percent growth [35]: 90.8% (inactive) | percent growth [36]: 42.3% | percent growth [37]: 89.9% (inactive) | percent growth [38]: 66.6% (inactive) | percent growth [39]: 64% (inactive) | percent growth [40]: 34.9% | percent growth [41]: 71.2% (inactive) | percent growth [42]: 18.9% | percent growth [43]: 102% (inactive) | percent growth [44]: 71% (inactive) | percent growth [45]: 49.2% | percent growth [46]: 34.4% | percent growth [47]: 57.7% (inactive) | percent growth [48]: 85.4% (inactive) | percent growth [49]: 97.1% (inactive) | percent growth [50]: 55.4% (inactive) | percent growth [51]: 72.4% (inactive) | percent growth [52]: 76% (inactive)
